Source: patent US8247541B2, “Plant compositions enriched in dehydrosoyasaponin I (D-I) and methods of producing such compositions” (Her Majesty the Queen in right of Canada, as represented by …, priority 2007, dated 2012)
“Also recorded” adds a separate entry of the source. Marks after values point to notes of the source that are not given here.

Tests used:
[1] = Light treatment of soyasaponin extracts/solutions followed by HPLC/ELSD (peak area ratio to internal standard alpha-hederin); format: physicochemical; settings: 80% methanol; for D-I/D-I + S-I + S-VI / HPLC/ELSD component peak area to internal standard ratio, D-I / HPLC/ELSD component peak area to internal standard ratio, S-I / HPLC/ELSD component peak area to internal standard ratio, S-VI / HPLC/ELSD component peak area to internal standard ratio, total soyasaponins / HPLC/ELSD component peak area to internal standard ratio, unretained: 2 days fluorescent light
Experimental: HPLC and mass spectrometry. HP-20 MeOH samples (N=3) were prepared in 80% methanol at 8 mg/mL ( ? -hederin at 0.25 mg/mL) and syringe filtered (0.45 μm pore size, nylon membrane type, Chromatographic Specialties, Brockville, ON) into 0.25 mL glass autosampler vial inserts (Fisher no. 03-375-3A). The solutions were maintained at 15° C. before injection ([…] volume). The instrument consisted of an Alliance 2690 separations module (Waters Canada, Mississauga, ON) equipped with vacuum solvent degassing, a Waters 996 photodiode array detector (PDA) and a PL-EMD-960 evaporative light scattering detector (ELSD) (Polymer Laboratories, Amherst, Mass.) controlled by Waters Millennium software. Settings for the ELSD were attenuation=1, time constant=1 second, temperature=90°, PMT level=6 and airflow=4 liters/min. A reversed phase C-18 Symmetry™ column (3.0×150 mm, 5 μm particle size) purchased from Waters Canada and maintained at 30° C. was used. The mobile phase consisted of 0.05% trifluoroacetic acid (TFA) in water (solvent A) and 0.05% TFA in acetonitrile (solvent B), delivered at a flow rate of 0.4 mL/min. The gradient elution program consisted of 95% A and 5% B at time 0. After 10 min, the composition was 65% A and 35% B (linear, curve 6 gradient). At that time, the linear gradient progressed to 50% A and 50% B over 15 min and to 5% A-95% B over 5 min before reverting to 95% A and 5% B from 35 to 43 min. Mean values of the peak area ratios from single analysis of the three samples from each variety were reported. […]
To further investigate the possibility of S-VI undergoing visible-light-mediated phototransformation to D-I, a source of the unstable S-VI was required as well as other chromatographic fractions that might contain a photosensitizer. Starting with defatted Amit chickpea flour and with brief (minimal) exposure to visible laboratory light, we therefore isolated by the traditional hot methanol and Diaion HP-20 procedures (of Table 1) a dried HP-20 MeOH extract containing S-VI. The earlier-eluting aqueous methanol fractions (also isolated in powder form) were additionally obtained as a potential source of the photosensitizer, in addition to the chloroform extract from the defatting step. Three extraction and isolation experiments were completed (prep A, B and E). Aqueous methanol fractions (30% MeOH and <30% MeOH) containing non-saponin components (see example 7) were additionally available from an experiment on the same flour but these fractions had been isolated after exposure of the crude methanol extract to light (see Table 7).
Three concentrations of a 30% MeOH isolate were used for comparison (two concentrations were previously employed in Table 10). […] D-I to internal standard ratios were 3.3-4, equivalent to the ratios obtained in tests 3 and 4 with the aqueous methanol additions (see also trial 3 of Table 10).

[2] = target: calcium-dependent potassium channels (Homo sapiens, UniProt Q12791+Q16558); settings: cited from earlier work
Chain of calcium-dependent potassium channels (Q12791 whole entry): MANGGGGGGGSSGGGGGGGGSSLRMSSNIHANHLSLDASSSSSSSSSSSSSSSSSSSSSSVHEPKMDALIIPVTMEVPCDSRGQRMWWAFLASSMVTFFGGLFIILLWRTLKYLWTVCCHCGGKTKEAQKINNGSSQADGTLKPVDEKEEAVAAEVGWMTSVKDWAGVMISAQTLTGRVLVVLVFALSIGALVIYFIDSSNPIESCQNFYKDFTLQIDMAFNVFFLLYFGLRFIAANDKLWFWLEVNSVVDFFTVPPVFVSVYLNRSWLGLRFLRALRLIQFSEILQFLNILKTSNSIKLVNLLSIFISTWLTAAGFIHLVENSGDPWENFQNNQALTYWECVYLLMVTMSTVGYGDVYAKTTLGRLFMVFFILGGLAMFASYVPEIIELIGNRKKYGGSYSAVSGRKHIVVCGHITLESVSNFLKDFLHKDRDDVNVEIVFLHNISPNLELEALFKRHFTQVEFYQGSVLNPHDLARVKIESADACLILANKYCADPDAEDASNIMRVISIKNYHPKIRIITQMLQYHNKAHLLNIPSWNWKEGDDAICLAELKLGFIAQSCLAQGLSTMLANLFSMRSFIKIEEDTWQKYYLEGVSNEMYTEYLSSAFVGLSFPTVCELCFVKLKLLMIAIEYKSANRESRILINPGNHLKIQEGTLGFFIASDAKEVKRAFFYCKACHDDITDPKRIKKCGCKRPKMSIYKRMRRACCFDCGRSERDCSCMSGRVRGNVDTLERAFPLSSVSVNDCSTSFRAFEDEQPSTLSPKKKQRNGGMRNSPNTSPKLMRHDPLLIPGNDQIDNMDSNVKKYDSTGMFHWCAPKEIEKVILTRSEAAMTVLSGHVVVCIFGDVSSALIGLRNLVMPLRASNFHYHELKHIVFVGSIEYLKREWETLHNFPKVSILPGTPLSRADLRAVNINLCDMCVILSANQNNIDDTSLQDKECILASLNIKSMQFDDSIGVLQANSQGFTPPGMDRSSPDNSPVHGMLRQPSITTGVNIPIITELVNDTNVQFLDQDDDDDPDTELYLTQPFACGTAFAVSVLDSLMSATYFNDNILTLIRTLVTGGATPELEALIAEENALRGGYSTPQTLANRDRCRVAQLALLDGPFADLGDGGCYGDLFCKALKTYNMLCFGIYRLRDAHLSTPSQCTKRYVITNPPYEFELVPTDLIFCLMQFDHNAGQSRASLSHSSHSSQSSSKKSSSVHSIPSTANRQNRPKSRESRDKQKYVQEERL
Chain of calcium-dependent potassium channels (Q16558 whole entry): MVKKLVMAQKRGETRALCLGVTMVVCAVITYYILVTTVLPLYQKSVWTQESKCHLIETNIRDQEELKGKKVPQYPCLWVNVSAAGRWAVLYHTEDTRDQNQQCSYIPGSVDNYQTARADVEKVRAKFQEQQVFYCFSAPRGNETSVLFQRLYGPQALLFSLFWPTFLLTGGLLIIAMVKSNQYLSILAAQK

[3] = test system: stored product insect pests; settings: D-I isolated from pea; cited from earlier work
[4] = Solubility of photosensitizer in extraction solvents; format: physicochemical
[5] = potential photosensitizer 10 μM added to 100% MeOH fraction (3 mg) of Amit chickpea
[6] = potential photosensitizer 50 μM added to 100% MeOH (2.98 mg) + 30% MeOH (4.47-4.58 mg) fractions
[7] = potential photosensitizer 50 μM added to 100% MeOH fraction (3 mg) of Amit chickpea
[8] = potential photosensitizer 100 μM added to 100% MeOH fraction (3 mg) of Amit chickpea

Compound | D-I/D-I + S-I + S-VI [1, 5] | HPLC/ELSD component peak area to internal standard ratio, D-I [1, 5] | HPLC/ELSD component peak area to internal standard ratio, S-I [1, 5] | HPLC/ELSD component peak area to internal standard ratio, S-VI [1, 5] | HPLC/ELSD component peak area to internal standard ratio, total soyasaponins [1, 5] | HPLC/ELSD component peak area to internal standard ratio, unretained [1, 5] | D-I/D-I + S-I + S-VI [1, 7] | HPLC/ELSD component peak area to internal standard ratio, D-I [1, 7] | HPLC/ELSD component peak area to internal standard ratio, S-I [1, 7] | HPLC/ELSD component peak area to internal standard ratio, S-VI [1, 7] | HPLC/ELSD component peak area to internal standard ratio, total soyasaponins [1, 7] | HPLC/ELSD component peak area to internal standard ratio, unretained [1, 7] | D-I/D-I + S-I + S-VI [1, 8] | HPLC/ELSD component peak area to internal standard ratio, D-I [1, 8] | HPLC/ELSD component peak area to internal standard ratio, S-I [1, 8] | HPLC/ELSD component peak area to internal standard ratio, S-VI [1, 8] | HPLC/ELSD component peak area to internal standard ratio, total soyasaponins [1, 8] | HPLC/ELSD component peak area to internal standard ratio, unretained [1, 8] | further results
COc1c2ccoc2cc2oc(=O)ccc12 [bergapten] | 0.1 | 1.6 | 8.2 | 1.2 | 11.0 | 4.8 | 0.1 | 1.2 | 6.0 | 1.2 | 8.4 | 3.8 | 0.2 | 1.7 | 8.0 | 1.4 | 11.1 | 4.4 | D-I/D-I + S-I + S-VI [1, 6]: 0.3; HPLC/ELSD component peak area to internal standard ratio, D-I [1, 6]: 3.6; HPLC/ELSD component peak area to internal standard ratio, S-I [1, 6]: 7.4; HPLC/ELSD component peak area to internal standard ratio, S-VI [1, 6]: <0.003; HPLC/ELSD component peak area to internal standard ratio, total soyasaponins [1, 6]: 11.0; HPLC/ELSD component peak area to internal standard ratio, unretained [1, 6]: 70.7
Cc1cc2nc3c(=O)[nH]c(=O)nc-3n(C[C@H](O)[C@H](O)[C@H](O)COP(=O)(O)OP(=O)(O)OC[C@H]3O[C@@H](n4cnc5c(N)ncnc54)[C@H](O)[C@@H]3O)c2cc1C [FAD] | 0.3 | 3.3 | 6.8 | <0.003 | 10.1 | 5.1 | 0.4 | 3.0 | 5.5 | <0.003 | 8.6 | 5.6 | 0.4 | 2.8 | 4.0 | <0.003 | 6.7 | 6.9 | –
Cc1cc2nc3c(=O)[nH]c(=O)nc-3n(C[C@H](O)[C@H](O)[C@H](O)COP(=O)(O)O)c2cc1C [FMN] | 0.3 | 3.3 | 6.5 | <0.003 | 9.9 | 4.8 | 0.4 | 2.9 | 4.5 | <0.003 | 7.4 | 5.1 | 0.5 | 1.8 | 0.3^f | <0.003 | 2.1 | 6.5 | –
dehydrosoyasaponin I [D-I] | – | – | – | – | – | – | – | – | – | – | – | – | – | – | – | – | – | – | activity on calcium-dependent (calcium-activated) potassium channels ([2]; D-I isolated from leaves of Desmodium adscendens): high-affinity activator; also recorded: potent calcium-activated potassium channel opener; potency as a potassium channel opener relative to S-I ([2]; compared with S-I): 60 fold; insecticidal and antifeedant properties [3]: insecticidal and antifeedant properties
Cc1cc2nc3c(=O)[nH]c(=O)nc-3n(C[C@H](O)[C@H](O)[C@H](O)CO)c2cc1C [riboflavin] | – | – | – | – | – | – | – | – | – | – | – | – | – | – | – | – | – | – | solubility in 80% methanol ([4]; 80% methanol): soluble; solubility in chloroform ([4]; chloroform): sparingly soluble
CC1=C(O)C(=O)C[C@H](O[C@@H]2CC(C)(C)C[C@H]3C4=CC[C@@H]5[C@@]6(C)CC[C@H](O[C@@H]7O[C@H](C(=O)O)[C@@H](O)[C@H](O)[C@H]7O[C@@H]7O[C@H](CO)[C@H](O)[C@H](O)[C@H]7O[C@@H]7O[C@@H](C)[C@H](O)[C@@H](O)[C@H]7O)[C@](C)(CO)[C@@H]6CC[C@@]5(C)[C@]4(C)CC[C@@]23C)O1 [S-VI, soyasaponin VI] | – | – | – | – | – | – | – | – | – | – | – | – | – | – | – | – | – | – | stability to fluorescent light ([1]; laboratory fluorescent light levels, room temperature, a few days): labile
